# Measured values taken from PubChem BioAssay AID192 (DTP/NCI, 2004).
# “And” between values parts separate entries of the source, which are not always exact repeats. Identical values can stand only once. Toxic doses and inconclusive results are not listed.
# System: BDF1 mice, B16 melanoma ip, median survival T/C
# Experiment: NCI In Vivo Anticancer Drug Screen. Data for tumor model B16 Melanoma (intraperitoneal) in B6D2F1 (BDF1) mice
# Settings: endpoint: median survival time, higher = longer survival
# Summary of the method: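 Read-out: survival or tumor size, given as treated/control ratio. Controls received vehicle only; animals bore transplantable tumors.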
# [1] = dose: 100.0 mg/kg/injection, schedule: Q01DX009 (ip), vehicle: Klucel (hydroxypropylcellulose) (HPC)
# [2] = dose: 200.0 mg/kg/injection, schedule: Q01DX009 (ip), vehicle: Klucel (hydroxypropylcellulose) (HPC)
# [3] = dose: 400.0 mg/kg/injection, schedule: Q01DX009 (ip), vehicle: Klucel (hydroxypropylcellulose) (HPC)
# [4] = dose: 50.0 mg/kg/injection, schedule: Q01DX009 (ip), vehicle: saline with Tween-80
# [5] = dose: 100.0 mg/kg/injection, schedule: Q01DX009 (ip), vehicle: saline with Tween-80
# [6] = dose: 25.0 mg/kg/injection, schedule: Q01DX009 (ip), vehicle: saline with Tween-80
# [7] = dose: 12.5 mg/kg/injection, schedule: Q01DX009 (ip), vehicle: saline with Tween-80
# [8] = dose: 6.25 mg/kg/injection, schedule: Q01DX009 (ip), vehicle: saline with Tween-80
# [9] = dose: 12.5 mg/kg/injection, schedule: Q01DX009 (ip), vehicle: Klucel (hydroxypropylcellulose) (HPC)
# [10] = dose: 6.25 mg/kg/injection, schedule: Q01DX009 (ip), vehicle: Klucel (hydroxypropylcellulose) (HPC)
smiles,measurement,setting,value
Cc1cc2c(C(C)C)c(O)c(O)c(C=O)c2c(O)c1-c1c(C)cc2c(C(C)C)c(O)c(O)c(C=O)c2c1O,T/C,"dose: 0.25 mg/kg/injection, schedule: Q01DX009 (ip), vehicle: Klucel (hydroxypropylcellulose) (HPC)",93 % of control
same,T/C,"dose: 0.5 mg/kg/injection, schedule: Q01DX009 (ip), vehicle: Klucel (hydroxypropylcellulose) (HPC)",91 % of control
same,T/C,"dose: 1.0 mg/kg/injection, schedule: Q01DX009 (ip), vehicle: Klucel (hydroxypropylcellulose) (HPC)",96 % of control
same,T/C,"dose: 2.0 mg/kg/injection, schedule: Q01DX009 (ip), vehicle: Klucel (hydroxypropylcellulose) (HPC)",104 % of control
same,T/C,"dose: 4.0 mg/kg/injection, schedule: Q01DX009 (ip), vehicle: Klucel (hydroxypropylcellulose) (HPC)",91 % of control
same,T/C,"dose: 8.0 mg/kg/injection, schedule: Q01DX009 (ip), vehicle: Klucel (hydroxypropylcellulose) (HPC)",91 % of control
Cc1cc([N+](=O)[O-])c(N)c([N+](=O)[O-])c1,T/C,[1],100 % of control
same,T/C,[2],93 % of control
same,T/C,[3],100 % of control
O=C1CSC(=S)N1c1ccco1,T/C,[4],92 % of control
same,T/C,[5],90 % of control
same,T/C,"dose: 200.0 mg/kg/injection, schedule: Q01DX009 (ip), vehicle: saline with Tween-80",87 % of control
CC(CC(O)c1ccccc1)c1ccccc1 (stereo not given),T/C,[1],102 % of control
same,T/C,[2],100 % of control
same,T/C,[3],92 % of control
O=[N+]([O-])c1cc(F)ccc1O,T/C,[6],100 % of control
Cc1c[n+]2ccccc2n1C,T/C,[6],99 % of control and 100 % of control
same,T/C,[4],94 % of control and 96 % of control
same,T/C,[5],93 % of control and 94 % of control
CCC(=O)OCC(=O)[C@]1(O)Cc2c(O)c3c(c(O)c2[C@@H](OC2CC(N)C(O)C(C)O2)C1)C(=O)c1c(OC)cccc1C3=O (stereo not given in full),T/C,"dose: 0.25 mg/kg/injection, schedule: Q01DX009 (ip), vehicle: saline",188 % of control
same,T/C,"dose: 0.5 mg/kg/injection, schedule: Q01DX009 (ip), vehicle: saline",175 % of control
same,T/C,"dose: 1.0 mg/kg/injection, schedule: Q01DX009 (ip), vehicle: saline",169 % of control and 195 % of control
same,T/C,"dose: 2.0 mg/kg/injection, schedule: Q01DX009 (ip), vehicle: saline",177 % of control and 260 % of control
CCN1C[C@]2(COC)[C@H](O)C[C@H](OC)[C@]34C1[C@H]([C@H](OC)[C@H]23)[C@]1(OC(C)=O)[C@H]2[C@@H](OC(=O)c3ccccc3)[C@](O)(C[C@H]24)[C@@H](OC)[C@@H]1O,T/C,"dose: 15.0 micrograms/kg/injection, schedule: Q01DX009 (ip), vehicle: Klucel (hydroxypropylcellulose) (HPC)",92 % of control
same,T/C,"dose: 60.0 micrograms/kg/injection, schedule: Q01DX009 (ip), vehicle: Klucel (hydroxypropylcellulose) (HPC)",89 % of control
same,T/C,"dose: 120.0 micrograms/kg/injection, schedule: Q01DX009 (ip), vehicle: Klucel (hydroxypropylcellulose) (HPC)",94 % of control
Oc1ccc(C2CCc3ccccc32)cc1 (stereo not given),T/C,[1],96 % of control
same,T/C,[2],96 % of control
same,T/C,[3],100 % of control
Nc1ccn(C2CC(O)C(CO)O2)c(=O)n1 (stereo not given),T/C,"dose: 9.38 mg/kg/injection, schedule: Q01DX009 (ip), vehicle: water",105 % of control
same,T/C,"dose: 18.75 mg/kg/injection, schedule: Q01DX009 (ip), vehicle: water",101 % of control
same,T/C,"dose: 37.5 mg/kg/injection, schedule: Q01DX009 (ip), vehicle: water",100 % of control
same,T/C,"dose: 75.0 mg/kg/injection, schedule: Q01DX009 (ip), vehicle: water",99 % of control
same,T/C,"dose: 150.0 mg/kg/injection, schedule: Q01DX009 (ip), vehicle: water",109 % of control
COC(=O)C1Oc2ccc(Cl)cc2Cc2cc(Cl)ccc2O1,T/C,"dose: 2.5 mg/kg/injection, schedule: Q01DX009 (ip), vehicle: Klucel (hydroxypropylcellulose) (HPC)",91 % of control
same,T/C,"dose: 5.0 mg/kg/injection, schedule: Q01DX009 (ip), vehicle: Klucel (hydroxypropylcellulose) (HPC)",99 % of control
same,T/C,"dose: 10.0 mg/kg/injection, schedule: Q01DX009 (ip), vehicle: Klucel (hydroxypropylcellulose) (HPC)",93 % of control and 99 % of control
CC(NC1=NCCO1)c1cccc2ccccc12 (stereo not given),T/C,"dose: 8.0 mg/kg/injection, schedule: Q04DX003 (ip), vehicle: saline with Tween-80",102 % of control
same,T/C,"dose: 12.0 mg/kg/injection, schedule: Q04DX003 (ip), vehicle: saline with Tween-80",115 % of control
same,T/C,[7],102 % of control
same,T/C,"dose: 18.0 mg/kg/injection, schedule: Q04DX003 (ip), vehicle: saline with Tween-80",102 % of control
same,T/C,[6],106 % of control
same,T/C,[4],93 % of control
same,T/C,"dose: 50.0 mg/kg/injection, schedule: Q04DX003 (ip), vehicle: saline with Tween-80",123 % of control
NC(=S)n1cccn1,T/C,[6],96 % of control
same,T/C,[4],114 % of control
same,T/C,[5],94 % of control
S=P(NCCS)(N1CC1)N1CC1,T/C,[8],95 % of control
same,T/C,[7],96 % of control
same,T/C,[6],98 % of control
same,T/C,"dose: 100.0 mg/kg/injection, schedule: Q04DX003 (ip), vehicle: saline with Tween-80",105 % of control
same,T/C,"dose: 200.0 mg/kg/injection, schedule: Q04DX003 (ip), vehicle: saline with Tween-80",97 % of control
same,T/C,"dose: 400.0 mg/kg/injection, schedule: Q04DX003 (ip), vehicle: saline with Tween-80",95 % of control
O=C[C@@H](CO)O[C@H](C=O)n1cnc2c(=O)[nH]cnc21,T/C,"dose: 37.5 mg/kg/injection, schedule: Q01DX009 (ip), vehicle: saline",95 % of control
same,T/C,"dose: 75.0 mg/kg/injection, schedule: Q01DX009 (ip), vehicle: saline",95 % of control
same,T/C,"dose: 150.0 mg/kg/injection, schedule: Q01DX009 (ip), vehicle: saline",88 % of control
ClCCCCCCCCCCCl,T/C,[9],111 % of control
same,T/C,"dose: 25.0 mg/kg/injection, schedule: Q01DX009 (ip), vehicle: Klucel (hydroxypropylcellulose) (HPC)",100 % of control
same,T/C,"dose: 25.0 mg/kg/injection, schedule: Q04DX003 (ip), vehicle: Klucel (hydroxypropylcellulose) (HPC)",100 % of control
same,T/C,"dose: 50.0 mg/kg/injection, schedule: Q01DX009 (ip), vehicle: Klucel (hydroxypropylcellulose) (HPC)",95 % of control
same,T/C,"dose: 50.0 mg/kg/injection, schedule: Q04DX003 (ip), vehicle: Klucel (hydroxypropylcellulose) (HPC)",100 % of control
same,T/C,"dose: 100.0 mg/kg/injection, schedule: Q04DX003 (ip), vehicle: Klucel (hydroxypropylcellulose) (HPC)",104 % of control
Cc1nc2ccccc2nc1CBr,T/C,"dose: 0.4 mg/kg/injection, schedule: Q01DX009 (ip), vehicle: saline with Tween-80",104 % of control
same,T/C,"dose: 0.8 mg/kg/injection, schedule: Q01DX009 (ip), vehicle: saline with Tween-80",104 % of control
same,T/C,"dose: 0.8 mg/kg/injection, schedule: Q01DX009 (ip), vehicle: saline",95 % of control
same,T/C,"dose: 1.6 mg/kg/injection, schedule: Q01DX009 (ip), vehicle: Klucel (hydroxypropylcellulose) (HPC)",93 % of control
same,T/C,"dose: 1.6 mg/kg/injection, schedule: Q01DX009 (ip), vehicle: saline",93 % of control
same,T/C,"dose: 3.12 mg/kg/injection, schedule: Q01DX009 (ip), vehicle: Klucel (hydroxypropylcellulose) (HPC)",100 % of control
same,T/C,"dose: 3.2 mg/kg/injection, schedule: Q01DX009 (ip), vehicle: saline with Tween-80",119 % of control
same,T/C,"dose: 3.2 mg/kg/injection, schedule: Q01DX009 (ip), vehicle: saline",95 % of control
same,T/C,[10],87 % of control
same,T/C,[8],113 % of control
same,T/C,"dose: 6.3 mg/kg/injection, schedule: Q01DX009 (ip), vehicle: saline",102 % of control
same,T/C,[9],96 % of control
same,T/C,[7],108 % of control
CC1(C)N=C(N)N=C(N)N1c1ccc(CCc2ccccc2)cc1,T/C,"dose: 0.75 mg/kg/injection, schedule: Q01DX009 (ip), vehicle: saline with Tween-80",97 % of control
same,T/C,"dose: 1.5 mg/kg/injection, schedule: Q01DX009 (ip), vehicle: saline with Tween-80",100 % of control
same,T/C,"dose: 3.0 mg/kg/injection, schedule: Q01DX009 (ip), vehicle: saline with Tween-80",102 % of control
same,T/C,"dose: 6.0 mg/kg/injection, schedule: Q01DX009 (ip), vehicle: saline with Tween-80",95 % of control
Cc1cnc(/C=N\NC(N)=S)c2cccc(N)c12,T/C,"dose: 3.12 mg/kg/injection, schedule: Q01DX009 (ip), vehicle: saline with Tween-80",100 % of control
same,T/C,"dose: 3.13 mg/kg/injection, schedule: Q01DX009 (ip), vehicle: Klucel (hydroxypropylcellulose) (HPC)",102 % of control
same,T/C,"dose: 3.13 mg/kg/injection, schedule: Q01DX009 (ip), vehicle: saline with Tween-80",114 % of control
same,T/C,[10],114 % of control
same,T/C,[8],103 % of control and 124 % of control
same,T/C,[9],115 % of control
